Measurements: patent US20250381110A1, “SKIN CARE COMPOSITION AND METHOD OF USING THE SAME” (THE PROCTER & GAMBLE COMPANY, priority 2024, published 2025)
Counter-ions that a name gives are not always drawn.

System: p62-dependent mitophagy
Assay: Luciferase-p62 assay (Fluc-p62 clearance) in mouse embryonic fibroblasts
Type: cell-based
Details: for Mean Luminescence: Luciferase-p62 assay, mouse embryonic fibroblasts (MEFs), compounds at 10 μM; for % Activity over baseline: percentage of Luciferase-p62 clearance relative to baseline (mean luminescence in the absence of doxycycline induction); for % Activity over baseline / % Activity relative to Rapamycin: MEFs, 10 μM; for % Activity relative to Rapamycin: percentage of activity relative to rapamycin tested in the same experiment at the same concentration
Description: To identify p62-dependent materials which increase mitophagy, a Luciferase-p62 Assay was established. This method provides an approach to measure the ability of a material to modulate p62-dependent mitophagy by using an inducible firefly luciferase-p62 (Fluc-p62) reporter cell system. In this assay, p62 levels are driven by doxycycline treatment. After levels increased, expression of Fluc-p62 is turned off by removal of doxycycline, materials are then added and assessed for how they affect clearance of Fluc-p62 protein, which is proportionate to cellular mitophagy rates (Kelly et al.). The negative control is doxycycline induced Luc-p62 in the absence of compound or bioactive material treatment and in the presence of vehicle (DMSO).
Test materials including bioactive materials were screened in mouse embryonic fibroblasts (MEFs, Harada et al.) expressing the TET-inducible p62-fluc construct as previously described (Brown et al.). […] Gibson assembly was used to insert firefly luciferase (Fluc) and p62 into the pCW57.1 backbone. Fluc, p62, and pCW57.1 were polymerase chain reaction (PCR) amplified using pfu polymerase (Life technologies) and Gibson assembly primers with 20 base pair (bp) overhangs. PCR products were separated by agarose gel electrophoreses, and fragments excised and purified before use in DNA assembly reaction with NEBuilder HiFi DNA Assembly kit (New England Biolabs). After the assembly, the reaction mix was transformed into NEB3040 Stable Competent Escherichia coli (New England Biolabs). After 24 hours growth at 31 degrees Celsius the plasmid was extracted using QIAprep Spin Miniprep kit (Qiagen). The plasmid was sequenced to confirm correct insertion of Fluc-p62. To generate MEFs stably expressing doxycycline inducible Fluc-p62, HEK293FT cells were transfected with Fluc-p62-pCW57.1 and the ViraPower Packaging Mix (Invitrogen) to produce lentivirus. MEFs were transduced with the obtained lentiviral stock following followed by selection with 1 microgram per milliliter puromycin.Fluc-p62expressing MEFs were maintained in DMEM supplemented with 10 percent fetal bovine serum (FBS), 100 units per milliliter penicillin/streptomycin, and 2 millimolar L-glutamine in a humidified atmosphere containing 5 percent carbon dioxide at 37 degrees Celsius. Cells were plated into white 96 well plates (2,000 cells per well with 100 microliters media) and allowed to settle for 24 hours. […] Subsequently, cells were treated with test materials for 48 hours in normal growth medium and analysed using ONE-Glo™+Tox Luciferase Reporter and Cell Viability Assay (Promega) by following the manufacturer's protocol.
Test compositions and control compositions were prepared as described above in the Luciferase-p62 assay (Method 3) and tested accordingly. The compounds used in this example, as examples of bioactive materials, were from the APExBIO DiscoveryProbe™ Natural Product Library Plus (Houston, TX) and evaluated at equivalent concentrations (10 μM).
Data are additionally calculated as percentage of activity relative to rapamycin, a benchmark control compound tested in the same experiment.

| Compound | Mean Luminescence | % Activity over baseline [%] | % Activity relative to Rapamycin [%] |
| --- | --- | --- | --- |
| CC1(C)S[C@@H]2[C@H](NC(=O)Cc3ccccc3)C(=O)N2[C@H]1C(=O)O [Benzylpenicillin potassium] | 937.79 | 42.04 | 75.75 |
| COc1ccc2cc3[n+](cc2c1O)CCc1cc2c(cc1-3)OCO2 [Berberrubine] | 766.18 | 52.65 | 94.86 |
| N[C@@H]1CCCCN(c2c(F)cc3c(=O)c(C(=O)O)cn(C4CC4)c3c2Cl)C1 [Besifloxacin HCl] | 777.82 | 51.93 | 93.56 |
| O=C(O)CCNC(=O)c1ccccc1 [Betamipron] | 923.38 | – | – |
| O=C(/C=C/c1ccc(O)cc1)CC(=O)/C=C/c1ccc(O)cc1 [Bisdemethoxycurcumin] | 355.33 | 78.04 | 140.61 |
| C[C@H]1CCC/C=C/[C@@H]2C[C@H](O)C[C@H]2[C@H](O)/C=C/C(=O)O1 [Brefeldin A] | 356.17 | 77.99 | 140.52 |
| CC(C)C[C@H]1C(=O)N2CCC[C@H]2[C@]2(O)O[C@](NC(=O)[C@@H]3C=C4c5cccc6[nH]c(Br)c(c56)C[C@H]4N(C)C3)(C(C)C)C(=O)N12 [Bromocriptine mesylate] | 685.00 | 57.67 | 103.90 |
| CN(Cc1ccc(C(C)(C)C)cc1)Cc1cccc2ccccc12 [Butenafine HCl] | 582.45 | 64.00 | 115.32 |
| CO[C@H]1C(=O)[C@]2(C)[C@@H](OC)C[C@H]3OC[C@@]3(OC(C)=O)[C@H]2[C@H](OC(=O)c2ccccc2)[C@]2(O)C[C@H](OC(=O)[C@H](O)[C@@H](NC(=O)OC(C)(C)C)c3ccccc3)C(C)=C1C2(C)C [Cabazitaxel] | 929.36 | 42.56 | 76.69 |
| CC(C)(CO)C(O)C(=O)NCCC(=O)[O-].CC(C)(CO)C(O)C(=O)NCCC(=O)[O-].[Ca+2] [Calcium D-Panthotenate] | 981.67 | 39.33 | 70.87 |
| CCCCCOC(=O)Nc1nc(=O)n([C@@H]2O[C@H](C)[C@@H](O)[C@H]2O)cc1F [Capecitabine] | 918.89 | 43.21 | 77.86 |
| COc1cc(CNC(=O)CCCC/C=C/C(C)C)ccc1O [Capsaicin] | 832.02 | 48.58 | 87.53 |
| CC1(C)[C@@H](OC(=O)CCC(=O)O)CC[C@]2(C)[C@H]3C(=O)C=C4[C@@H]5C[C@@](C)(C(=O)O)CC[C@]5(C)CC[C@@]4(C)[C@]3(C)CC[C@@H]12 [Carbenoxolone disodium] | 856.44 | 47.07 | 84.81 |
| CC(C)c1cc2c(c(O)c1O)[C@@]1(C(=O)O)CCCC(C)(C)[C@@H]1CC2 [Carnosic acid] | 661.96 | 59.09 | 106.47 |
| Cc1ccc(C(C)C)cc1O [Carvacrol] | 937.62 | 42.05 | 75.77 |
| C[C@@H]1CC[C@H]2C(C)(C)[C@H]3C[C@@]12CC[C@@]3(C)O [Cedrol] | 850.22 | 47.46 | 85.50 |
| CO/N=C(\C(=O)N[C@@H]1C(=O)N2C(C(=O)O)=C(Cn3ccc(=N)n3CCO)CS[C@H]12)c1csc(N)n1.O=S(=O)(O)O [Cefoselis Sulfate] | 937.12 | 42.09 | 75.83 |

| Compound | Mean Luminescence | % Activity over baseline [%] | % Activity relative to Rapamycin [%] |
| --- | --- | --- | --- |
| CN(C)CCn1nnnc1SCC1=C(C(=O)O)N2C(=O)[C@@H](NC(=O)Cc3csc(N)n3)[C@H]2SC1 [Cefotiam hydrochloride] | 993.62 | 38.59 | 69.54 |
| CO/N=C(\C(=O)N[C@@H]1C(=O)N2C(C(=O)O)=C(CSC(=O)c3ccco3)CS[C@H]12)c1csc(N)n1 [Ceftiofur HCl] | 781.02 | 51.73 | 93.21 |
| CO/N=C(\C(=O)N[C@@H]1C(=O)N2C(C(=O)OC(C)OC(C)=O)=C(COC(N)=O)CS[C@H]12)c1ccco1 (stereo partly shown) [Cefuroxime axetil] | 958.52 | 40.76 | 73.44 |
| CC(=O)OCC1=C(C(=O)O)N2C(=O)[C@@H](NC(=O)Cc3cccs3)[C@H]2SC1 [Cephalothin] | 727.65 | 55.03 | 99.15 |
| C[C@H](CCC(=O)O)[C@H]1CC[C@H]2[C@@H]3[C@H](O)C[C@@H]4C[C@H](O)CC[C@]4(C)[C@H]3CC[C@]12C [Chenodeoxycholic Acid] | 999.71 | 38.22 | 68.86 |
| Oc1c(Cl)cc(Cl)c2cccnc12 [Chloroxine] | 272.45 | 83.16 | 149.84 |
| CC[C@H]1OC(=O)[C@H](C)[C@@H](O[C@H]2C[C@@](C)(OC)[C@@H](O)[C@H](C)O2)[C@H](C)[C@@H](O[C@@H]2O[C@H](C)C[C@H](N(C)C)[C@H]2O)[C@](C)(OC)C[C@@H](C)C(=O)[C@H](C)[C@@H](O)[C@]1(C)O [Clarithromycin] | 941.49 | 41.82 | 75.34 |
| CC(C)(C)NCC(O)c1cc(Cl)c(N)c(Cl)c1 (stereo not shown) [Clenbuterol (hydrochloride)] | 994.53 | 38.54 | 69.44 |
| CCC[C@@H]1C[C@@H](C(=O)N[C@@H]([C@H]2O[C@H](SC)[C@H](OP(=O)(O)O)[C@@H](O)[C@H]2O)[C@H](C)Cl)N(C)C1 [Clindamycin Phosphate] | 526.49 | 67.46 | 121.55 |
| Clc1ccccc1C(c1ccccc1)(c1ccccc1)n1ccnc1 [Clotrimazole] | 623.22 | 61.48 | 110.78 |
| O=c1ccn([C@H]2C[C@H](O)[C@@H](CO)O2)c(=O)[nH]1 [Compound 2-Deoxyuridine] | 867.92 | 46.36 | 83.53 |
| NC(=O)Cc1ccccc1 [Compound 2-Phenylacetamide, 2-Phenylacetamide] | 861.95 | 46.73 | 84.20 |
| Nc1ccc(O)cc1 [Compound 4-Aminophenol, 4-Aminophenol] | 482.45 | 70.18 | 126.45 |
| N[C@@H](Cc1c[nH]c2ccc(O)cc12)C(=O)O [Compound 5-HTP] | 902.36 | 44.23 | 79.70 |
| CC(=O)O[C@H]1C(=O)[C@@]2(C)[C@H]([C@H](OC(=O)c3ccccc3)[C@]3(O)C[C@H](OC(=O)[C@H](O)[C@@H](NC(=O)c4ccccc4)c4ccccc4)C(C)=C1C3(C)C)[C@]1(OC(C)=O)CO[C@@H]1C[C@@H]2O [Compound 7-Epitaxol] | 968.61 | 40.14 | 72.32 |
| CCCCCCCCC[C@H](O)CC(=O)CCc1ccc(O)c(OC)c1 [Compound 10-Gingerol] | 520.57 | 67.83 | 122.21 |
| O=C(O[C@@H]1O[C@@H]2COC(=O)c3cc(O)c(O)c(O)c3-c3c(cc(O)c(O)c3O)C(=O)O[C@H]([C@H]1O)[C@@H]2O)c1cc(O)c(O)c(O)c1 [Corilagin] | 985.42 | 39.10 | 70.45 |
